Test results: patent US20260053801A1, “METHOD FOR TREATING AUTOPHAGY DEPENDENT CANCER WITH A PIKFYVE INHIBITOR” (The Regents of the University of Michigan, priority 2023, published 2026)
Each block holds one molecule with its values, some of them ahead of it.

How the values were obtained:
7940B orthotopic tumors = assay: 7940B syngeneic orthotopic model in C57BL/6 mice; assay type: in vivo, mouse; conditions: ESK981 30 mg/kg QD PO, trametinib 1 mg/kg QD PO
LTL545 NEPC PDX tumors = assay: LTL545 NEPC PDX model; conditions: mouse, in vivo
[1] = system: MIA-PaCa-2 human PDAC cell line xenograft; assay: MIA-PaCa-2 PDAC xenograft (CDX) in SCID mice; assay type: in vivo; conditions: Day 36 versus Day 1
Procedure: (§1) For xenograft studies, 6-10-week-old CB17 severe combined immunodeficiency (SCID) mice obtained from the University of Michigan breeding colony were used. For syngeneic studies, 6-10-week-old C57BL6 mice obtained from Jackson Laboratories were used. Subcutaneous tumors were established at both sides of the dorsal flank of the mice by injecting 1×10^6 cells in […] of 50:50 Matrigel and serum-free media. Tumors were measured 2-3 times per week using digital calipers following the formula (π/6) (L×W2), where L=length and W=width of the tumor. At the end of the studies, mice were sacrificed, and tumors extracted and weighed.
Terminal dUTP Nick End Labeling (TUNEL) staining was performed with an In Situ Cell Death Detection Kit (TMR Red #12156792910; Roche Applied Science) following the manufacturer's instructions. Briefly, fixed sections were permeabilized using Triton X-100 followed by PBS washing. The labelling reaction was performed at 37° C. for 1 hour by addition of the reaction buffer containing enzymes. Images were acquired using a Zeiss Axiolmager M1 microscope.
Given the enhanced autophagy dependence of PDAC and the urgent need for new therapies, ESK981 was investigated for efficacy in combatting this type of cancer. […]

[2] = system: NCI-H660 NEPC cell line-derived xenografts; assay: NCI-H660 NEPC xenograft in SCID mice; assay type: in vivo; conditions: 46 days of treatment, 30 mg/kg
Procedure: as §1
Given the hypoxic and nutrient-depleted environments of NEPC Guo et al., Nat Commun. 2019; 10(1):278; Qi et al., Cancer Cell. 2010; 18(1):23-38., it was hypothesized that NEPC may be dependent on autophagy and sensitive to PIKfyve inhibition by ESK981. To test this NEPC prostate patient-derived xenograft (PDX) of NCI-H660, LTL331R, and LTL610 were subcutaneously grown into non-castrated SCID mice until tumors reached an average size of 100 mm^3, after which mice were randomized into two groups. Mice in each group received either vehicle or 30 mg/kg ESK981 five days per week. […] The anti-tumor effect of ESK981 was in turn confirmed in two additional NEPC PDX models including LTL331R (FIGS. 12-14) and LTL610 xenografts (FIG. 15-17). […]

ACC1 = molecular target: T1, ACC1 (Homo sapiens, UniProt Q13085); assay: Immunoblot of ACC1 phosphorylation status upon ND646; assay type: cell-based; conditions: MIA PaCa-2, PANC-1, 7940B cells
T1 construct: endogenous in cells; host or cells: MIA PaCa-2 (human PDAC)
Procedure: Cell lysates were prepared in RIPA buffer (ThermoFisher Scientific) supplemented with Halt™ Protease and Phosphatase Inhibitor Cocktail (ThermoFisher Scientific). Total protein was measured by DC™ Protein Assay Kit II (BIO-RAD). An equal amount of protein was resolved in NuPAGE™ 3 to 8%, Tris-Acetate Protein Gel (ThermoFisher Scientific) or NuPAGE™ 4 to 12%, Bis-Tris Protein Gel (ThermoFisher Scientific), blocked with 5% nonfat dry milk in TBS-T and blotted with primary antibodies overnight. Following incubation with HRP-conjugated secondary antibodies, membranes were imaged on an Odyssey CLx Imager (LiCOR Biosciences).

[3] = system: MIA PaCa-2, PANC-1, and 7940B cell lines; assay: Confluence assays of ND646 with PIKfyve inhibitors; assay type: cell-based, human and mouse; conditions: ND646 100 nM (MIA PaCa-2, PANC-1), 1000 nM (7940B)
Procedure: (§2) Cells were seeded in a clear 96-well plate overnight prior to treatment. Upon treatment with indicated compounds, plates were incubated in an Incucyte S3 2022 Rev1 (Sartorious), with 10× images taken every 4 hours, and well confluence was analyzed to assess for proliferation.

7940B cells = assay: Real-time oxygen consumption rate (Resipher) in 7940B cells; assay type: cell-based, mouse; conditions: apilimod 100 nM, ESK981 1000 nM, bafilomycin 100 nM, chloroquine 100 μM
Procedure: Real-time monitoring of basal oxygen consumption rate was performed using a Resipher (Lucid Scientific). […] Immediately following treatment with an additional 50 μl of medium (for a total of 100 μl), OCR monitoring was started by placing the Resipher device on the cells, which was incubated at 37° C. and 5% CO2 for 24 hours.

[4] = system: PDAC cells (7940B, PANC-1, Panc 04.03); assay: Rescue of antiproliferative effects with ferric ammonium citrate (FAC); assay type: cell-based, human and mouse; conditions: with ferric ammonium citrate and ferrostatin-1 (1 μM)
Procedure: as §2

SMILES: CC(C)Cn1c2ccc(Nc3ncccn3)cc2c2c3c(c4c(c21)CCc1nn(C)cc1-4)C(=O)NC3 [ESK981, 13-isobutyl-4-methyl-10-(pyrimidin-2-ylamino)-1,2,4,7,8,13-hexahydro-6H-indazolo[5,4-a]pyrrolo[3,4-c]carbazol-6-one]
mouse body weight throughout the treatment course (7940B orthotopic tumors): did not impact mouse body weight
individual tumors regressed (waterfall plot) (LTL545 NEPC PDX tumors): 80%
tumors cured (LTL545 NEPC PDX tumors): 80%
rate of tumor regression (waterfall plot) [1]: 64%
adverse events [2]: no adverse events were observed

phosphorylation status of ACC1 (p-ACC1) (ACC1): on-target effects
SMILES: COc1ccccc1[C@H](Cn1c(=O)n(C(C)(C)C(N)=O)c(=O)c2c(C)c(-c3ncco3)sc21)OC1CCOCC1 [ND646]
sensitization to ESK981 (confluence) ([3]; ESK981 30 nM or 100 nM): sensitized
sensitization to apilimod (confluence) ([3]; apilimod 100 nM or 50 nM): sensitized

SMILES: CO/C1=C\C(C)=C\[C@@H](C)[C@@H](O)[C@@H](C)C/C(C)=C/C=C/[C@H](OC)[C@@H]([C@@H](C)[C@@H](O)[C@H](C)[C@@]2(O)C[C@@H](O)[C@H](C)[C@@H](C(C)C)O2)OC1=O [bafilomycin A1]
OCR through 24 hours of treatment (7940B cells): significantly decreased OCR
antiproliferative effects upon addition of FAC [4]: drastically attenuated

SMILES: CC(=O)Nc1cccc(-n2c(=O)n(C3CC3)c(=O)c3c(Nc4ccc(I)cc4F)n(C)c(=O)c(C)c32)c1 [trametinib]
mouse body weight throughout the treatment course (7940B orthotopic tumors): did not impact mouse body weight
